Literature values as cited in patent US11817195B2, “Methods for lowering blood sugar with a gliflozin sodium-glucose cotransport 2 inhibitor pharmaceutical composition” (AstraZeneca UK Limited, priority 2018, dated 2023).

Experiments:
[1] = at least 14 double-blind, placebo-controlled, randomized studies

SMILES | risk of hyperkalemia (administration of the drug) | efficacy to lower blood sugar [1] | incidence of hyperkalemia (patients with moderate renal impairment, Mikhail, Curr. Drug Safety 9:127-132 (2014))
CCOc1ccc(Cc2cc([C@@H]3O[C@H](CO)[C@@H](O)[C@H](O)[C@H]3O)ccc2Cl)cc1 [dapagliflozin, (2S,3R,4R,5S,6R)-2-[4-chloro-3-[(4-ethoxyphenyl)methyl]phenyl]-6-(hydroxymethyl)oxane-3,4,5-triol] | not correlated with an increased risk of hyperkalemia | demonstrated | –
Cc1ccc([C@@H]2O[C@H](CO)[C@@H](O)[C@H](O)[C@H]2O)cc1Cc1ccc(-c2ccc(F)cc2)s1 [canagliflozin, (2S,3R,4R,5S,6R)-2-[3-[[5-(4-fluorophenyl)thiophen-2-yl]methyl]-4-methylphenyl]-6-(hydroxymethyl)oxane-3,4,5-triol] | – | – | higher incidence of hyperkalemia
